{"source": "patent US20030040510A1", "about": "“Selective estrogen receptor modulators in combination with estrogens” (Endorecherche, Inc., priority 2000, published 2003)", "key": {"[1]": {"test_system": "ovariectomized female rats", "assay": "Prevention of bone loss, body fat, serum cholesterol and ALP, 3-month treatment of OVX rats (Example 5A, experiment 1)", "type": "in vivo, Sprague-Dawley rats", "settings": "OVX rats, 3 months", "protocol": "Ten to twelve week-old female Sprague-Dawley rats (Crl:CD(SD)Br) (Charles River Laboratory, St-Constant, Canada) weighing approximately 220-270 g at start of treatment were used. The animals were acclimatized to the environmental conditions (temperature: 22±3° C.; humidity: 50±20%; 12-h light-12-h dark cycles, lights on at 07:15 h) for at least 1 week before starting the experiments. The animals were housed individually and were allowed free access to tap water and a pelleted certified rodent feed (Lab Diet 5002, Ralston Purina, St-Louis, Mo.). Experiments were conducted in an animal facility approved by the Canadian Council on Animal Care (CCAC) and the Association for Assessment and Accreditation of Laboratory Animal Care (AAALAC) in accordance with the CCAC Guide for Care and Use of Experimental Animals.\nOn day 1 of the study, the animals of the appropriate groups were bilaterally ovariectomized (OVX) under isoflurane anesthesia. […] Treatments were initiated on day 2 of the study and were performed once daily during 3 months.\nAfter 3 months (experiment 1) or 26 weeks (experiment 2) of treatment, individual rats under Isoflurane anesthesia had their whole body skeleton and lumbar spine scanned using dual energy x-ray absorptiometry (DEXA; QDR 4500A, Hologic, Waltham, Mass.) and a Regional High Resolution Scan software. The bone mineral density (BMD) of the lumbar spine (vertebrae L2 to L4) and the total body composition (fat percentage) were determined.\nAfter 3 months (experiment 1) or 26 weeks (experiment 2) of treatment, blood samples were collected at the jugular vein from overnight fasted animals (under Isoflurane anesthesia). Samples were processed for serum preparation and frozen at −80° C. until assay. Serum cholesterol levels and alkaline phospatase activity (ALP) were determined using the Boehringer Mannheim Diagnostic Hitachi 911 Analyzer (Boehringer Mannheim Diagnostic Laboratory Systems)."}, "[2]": {"test_system": "ZR-75-1 breast tumors", "assay": "Growth and response category of human ZR-75-1 breast tumors in OVX nude mice, 7 antiestrogens, 161 days (Example 8)", "type": "in vivo", "protocol": "The mice (5 per cage) were housed in vinyl cages equipped with air filter lids, which were kept in laminar airflow hoods and maintained under pathogen-limiting conditions. The photoperiod was 12 hours of light and 12 hours of darkness (lights on at 07:15). Cages, bedding and food (Agway Pro-Lab R-M-H Diet #4018) were autoclaved before use. Water was autoclaved and provided ad libitum. Bilateral ovariectomy was performed under isoflurane-induced anesthesia. […] Randomization and treatments were started one week later. […] The 17 groups included two control groups (OVX and OVX+Estrone), seven groups supplemented with an estrone implant and treated with an antiestrogen and eight other groups that received an antiestrogen alone. The estrone implants were then removed from the animals in the ovariectomized control group (OVX) and in groups that were to receive the antiestrogen alone. […] Tamoxifen was purchased from […], Israel) while toremifene citrate was purchased from Orion (Espoo, Finland). […] Animals in both control groups received 0.2 ml of the vehicle alone. The antiestrogen suspensions at the appropriate concentration were prepared each month, stored at 4° C. and used under constant agitation. Powder stock were hermetically stored at 4° C. […] Tumor response was assessed at the end of the study or at death of each animal, if it occurred during the course of the experiment. In this case, only data of mice that survived for at least half of the study (84 days) were used in the tumor response analysis."}, "[3]": {"test_system": "ovariectomized rats supplemented with 17β-estradiol", "assay": "EM-652.HCl with oral 17β-estradiol for 2 weeks in OVX rats: uterus, endometrial epithelium, vagina, serum cholesterol (Example 10)", "type": "in vivo, Sprague-Dawley rats", "settings": "for Reversal of the effect of E2 on uterine weight: 2 weeks", "protocol": "Ten to twelve week-old female Sprague-Dawley rats (Crl:CD(SD)Br) (Charles River Laboratory, St-Constant, Canada) weighing 215-265 g at time of ovariectomy were used. The animals were housed individually in an environmentally-controlled room (temperature: 22±3° C.; humidity: 50±20%; 12-h light-12-h dark cycles, lights on at 07:15 h). The animals were allowed free access to tap water and a certified rodent feed (Lab Diet 5002 (pellet), Ralston Purina, St-Louis, Mo.). The experiment was conducted in an animal facility approved by the Canadian Council on Animal Care (CCAC) and the Association for Assessment and Accreditation of Laboratory Animal Care (AAALAC) in accordance with the CCAC Guide for Care and Use of Experimental Animals.\nOn the first day of the study, the animals of the appropriate groups were bilaterally ovariectomized (OVX) under isoflurane anesthesia. The tested compounds were then given once daily by oral gavage as a suspension in 0.4% methylcellulose (0.5 ml/rat) from day 1 to day 14 of the study. Animals of groups 1 and 2 received the vehicle alone during the same time period. On day 15 of the study, 4 animals per group were perfused with 10% buffered formalin and tissues were processed for histological examination. The other animals were killed by exsanguination at the abdominal aorta under isoflurane anesthesia. The uterus and vagina were removed, stripped of remaining fat and weighed. A specimen from each uterus was fixed in 10% buffered formalin for determination of the height of endometrial epithelial cells using a computerized-assisted program (Software Image-Pro Plus).\nTotal cholesterol was measured on serum samples collected from overnight fasted animals using a Boehringer Mannheim Diagnostic Hitachi 911 Analyzer (Boehringer Mannheim Diagnostic Laboratory Systems)."}, "[4]": {"test_system": "breast and endometrial tissues", "assay": "Antiestrogens tested for SERM function and estrogenic activity in breast and endometrium"}, "[5]": {"settings": "50 μg daily + estrone, 161 days"}, "[6]": {"settings": "EM-652.HCl 3 mg/kg + E2 2 mg/kg"}, "[7]": {"settings": "EM-652.HCl 10 mg/kg + E2 2 mg/kg"}}, "data": [{"smiles": "CC1=C(c2ccc(O)cc2)[C@H](c2ccc(OCCN3CCCCC3)cc2)Oc2cc(O)ccc21.Cl", "note": "[EM-652.HCl, (S)-(+)-7-hydroxy-3-(4′-hydroxyphenyl)-4-methyl-2-(4″-(2′″-piperidinoethoxy)phenyl)-2H-1-benzopyran hydrochloride]", "values": [{"measurement": "OVX-induced fat percentage increase", "setting": "[1]", "value": "completely prevented"}, {"measurement": "Serum ALP", "setting": "[1]", "value": "91 ± 6", "unit": "IU/L"}, {"measurement": "Serum cholesterol", "setting": "[1]", "value": "0.87 ± 0.04", "unit": "mmol/L"}, {"measurement": "Complete response, of tumors", "setting": "[2]; [5]", "value": 17, "unit": "%"}, {"measurement": "Partial response, of tumors", "setting": "[2]; [5]", "value": 17, "unit": "%"}, {"measurement": "Progressing tumors", "setting": "[2]; [5]", "value": 7, "unit": "%"}, {"measurement": "Stable response, of tumors", "setting": "[2]; [5]", "value": 60, "unit": "%"}, {"measurement": "Effect on estrone-stimulated tumor growth", "setting": "[2]; 50 μg daily oral + estrone, 23 weeks", "value": "completely prevented tumor growth"}, {"measurement": "Change of ZR-75-1 tumor size compared to the OVX control group", "setting": "[2]; 200 μg daily alone, absence of estrone, 161 days", "value": "did not significantly change"}, {"measurement": "Effect on the inhibitory action of E2 on serum cholesterol", "setting": "[3]; EM-652.HCl 0.01 mg/kg to 0.3 mg/kg", "value": "no statistically significant effect"}, {"measurement": "Reduction of the effect of E2 on serum cholesterol", "setting": "[3]; EM-652.HCl 1.0 mg/kg", "value": 36, "unit": "%"}, {"measurement": "Reduction of the effect of E2 on serum cholesterol", "setting": "[3]; EM-652.HCl 3.0 mg/kg", "value": 30, "unit": "%"}, {"measurement": "Prevention of E2-stimulated endometrial epithelial height", "setting": "[3]; [6]", "value": 83, "unit": "%"}, {"measurement": "Reversal of the effect of E2 on uterine weight", "setting": "[3]; [6]", "value": 84, "unit": "%"}, {"measurement": "Inhibition of the stimulatory effect of E2 on vaginal weight", "setting": "[3]; EM-652.HCl 3 mg/kg, statistically non significant", "value": 50, "unit": "%"}, {"measurement": "Effect on the effect of E2 on vaginal weight", "setting": "[3]; EM-652.HCl 10 mg/kg", "value": "complete reversal"}, {"measurement": "Reduction of the effect of E2 on serum cholesterol", "setting": "[3]; EM-652.HCl 10 mg/kg", "value": 50, "unit": "%"}, {"measurement": "Prevention of E2-stimulated endometrial epithelial height", "setting": "[3]; [7]", "value": 93, "unit": "%"}, {"measurement": "Reversal of the effect of E2 on uterine weight", "setting": "[3]; [7]", "value": 87, "unit": "%"}, {"measurement": "Inhibitory effect on E2-stimulated vaginal weight", "setting": "[3]; EM-652.HCl up to 1 mg/kg", "value": "no significant inhibitory effect"}, {"measurement": "Function as SERM", "setting": "[4]", "value": "found to function as SERMs"}, {"measurement": "Estrogenic activity in breast and endometrial tissues", "setting": "[4]; physiological or pharmacological concentrations", "value": "do not have any estrogenic activity"}]}]}
